Experimental data from PubChem BioAssay AID1963843 (Molecular Pharmacology Branch, DTP, NCI, 2024).

System: 616215-338-R-J1-PDC complex spheroid viability
Assay: Anticancer human tumor 616215-338-R-J1-PDC patient-derived colon adenocarcinoma cell line growth inhibition [POLQ]
Settings: for IC50: curve of first compound; for viability, T/C: stronger effect = lower value; active = viability on the fitted dose curve at most 10% of control; inactive = the rest
Summary of the method: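 Three-cell-type spheroids modelling solid tumor plus stroma served as the readout system; POL inhibitors were tested individually and in combination, concentration ranges set by clinical Cmax where known.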

[1] = second compound 0.0316 µM, first compound 0.0316 µM
[2] = second compound 0.0316 µM, first compound 0.1 µM
[3] = second compound 0.0316 µM, first compound 0.316 µM
[4] = second compound 0.0316 µM, first compound 1 µM
[5] = second compound 0.1 µM, first compound 0.0316 µM
[6] = second compound 0.1 µM, first compound 0.1 µM
[7] = second compound 0.1 µM, first compound 0.316 µM
[8] = second compound 0.1 µM, first compound 1 µM
[9] = second compound 0.316 µM, first compound 0.0316 µM
[10] = second compound 0.316 µM, first compound 0.1 µM
[11] = second compound 0.316 µM, first compound 0.316 µM
[12] = second compound 0.316 µM, first compound 1 µM
[13] = second compound 1 µM, first compound 0.0316 µM
[14] = second compound 1 µM, first compound 0.1 µM
[15] = second compound 1 µM, first compound 0.316 µM
[16] = second compound 1 µM, first compound 1 µM
[17] = second compound 3.16 µM, first compound 0.0316 µM
[18] = second compound 3.16 µM, first compound 0.1 µM
[19] = second compound 3.16 µM, first compound 0.316 µM
[20] = second compound 3.16 µM, first compound 1 µM
[21] = second compound 10 µM, first compound 0.0316 µM
[22] = second compound 10 µM, first compound 0.1 µM
[23] = second compound 10 µM, first compound 0.316 µM
[24] = second compound 10 µM, first compound 1 µM
[25] = second compound 0.0316 µM, first compound 3.16 µM
[26] = second compound 0.0316 µM, first compound 10 µM
[27] = second compound 0.1 µM, first compound 3.16 µM
[28] = second compound 0.1 µM, first compound 10 µM
[29] = second compound 0.316 µM, first compound 3.16 µM
[30] = second compound 0.316 µM, first compound 10 µM
[31] = second compound 1 µM, first compound 3.16 µM
[32] = second compound 1 µM, first compound 10 µM
[33] = second compound 3.16 µM, first compound 3.16 µM
[34] = second compound 3.16 µM, first compound 10 µM
[35] = second compound 10 µM, first compound 3.16 µM
[36] = second compound 10 µM, first compound 10 µM
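Also: spheroids exposed to compounds for one week before readout.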
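For viability, T/C in this document: percent viability relative to DMSO vehicle wells taken as 100%.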

C=CCn1c(=O)c2cnc(Nc3ccc(N4CCN(C)CC4)cc3)nc2n1-c1cccc(C(C)(C)O)n1 + Cc1cccc(N(C)C(=O)C2C(O)CCN2c2nc(C)cc(C(F)(F)F)c2C#N)c1
0.428 µM: IC50 (second compound 1 µM)
0.559 µM: IC50 (second compound 0.316 µM)
0.542 µM: IC50 (second compound 0.1 µM)
0.333 µM: IC50 (second compound 3.16 µM)
0.25 µM: IC50 (second compound 10 µM)
0.269 µM: IC50 (second compound 0.0316 µM)
inactive: viability, T/C (second compound 0.0316 µM, first compound 0.00316 µM) 110% | viability, T/C (second compound 0.0316 µM, first compound 0.01 µM) 87.5% | viability, T/C [1] 108% | viability, T/C [2] 86.7% | viability, T/C [3] 44.5% | viability, T/C [4] 34.3% | viability, T/C (second compound 0.1 µM, first compound 0.00316 µM) 102% | viability, T/C (second compound 0.1 µM, first compound 0.01 µM) 97.4% | viability, T/C [5] 85.7% | viability, T/C [6] 93.4% | viability, T/C [7] 65.4% | viability, T/C [8] 31.2% | viability, T/C (second compound 0.316 µM, first compound 0.00316 µM) 97.4% | viability, T/C (second compound 0.316 µM, first compound 0.01 µM) 107% | viability, T/C [9] 91.7% | viability, T/C [10] 92.4% | viability, T/C [11] 67.8% | viability, T/C [12] 31.3% | viability, T/C (second compound 1 µM, first compound 0.00316 µM) 96.8% | viability, T/C (second compound 1 µM, first compound 0.01 µM) 90% | viability, T/C [13] 92.5% | viability, T/C [14] 76.7% | viability, T/C [15] 58.4% | viability, T/C [16] 27.8% | viability, T/C (second compound 3.16 µM, first compound 0.00316 µM) 98.1% | viability, T/C (second compound 3.16 µM, first compound 0.01 µM) 91.1% | viability, T/C [17] 93.8% | viability, T/C [18] 90.2% | viability, T/C [19] 50.9% | viability, T/C [20] 30.9% | viability, T/C (second compound 10 µM, first compound 0.00316 µM) 109% | viability, T/C (second compound 10 µM, first compound 0.01 µM) 90.1% | viability, T/C [21] 90.2% | viability, T/C [22] 83.8% | viability, T/C [23] 40.9% | viability, T/C [24] 26.9%

CC1COCCN1c1cc(-c2ccnn2C)c2ccnc(-c3ccn[nH]3)c2n1 (stereo unspecified) + Cc1cccc(N(C)C(=O)C2C(O)CCN2c2nc(C)cc(C(F)(F)F)c2C#N)c1
1.99 µM: IC50 (second compound 3.16 µM)
inactive: viability, T/C [1] 104% | viability, T/C [2] 110% | viability, T/C [3] 76.7% | viability, T/C [4] 66.2% | viability, T/C [25] 49.4% | viability, T/C [26] 50.6% | viability, T/C [5] 103% | viability, T/C [6] 100% | viability, T/C [7] 69.5% | viability, T/C [8] 61.8% | viability, T/C [27] 50.1% | viability, T/C [28] 50.5% | viability, T/C [9] 107% | viability, T/C [10] 91.1% | viability, T/C [11] 66.3% | viability, T/C [12] 57.4% | viability, T/C [29] 52.4% | viability, T/C [30] 53% | viability, T/C [13] 101% | viability, T/C [14] 91% | viability, T/C [15] 71.9% | viability, T/C [16] 57.1% | viability, T/C [31] 53% | viability, T/C [32] 40.8% | viability, T/C [17] 114% | viability, T/C [18] 95.2% | viability, T/C [19] 72.2% | viability, T/C [20] 54% | viability, T/C [33] 44.1% | viability, T/C [34] 47.9% | viability, T/C [21] 111% | viability, T/C [22] 90.6% | viability, T/C [23] 68% | viability, T/C [24] 49.2% | viability, T/C [35] 47.5% | viability, T/C [36] 36.8%
2.79 µM: IC50 (second compound 1 µM)
1.24 µM: IC50 (second compound 10 µM)
> 10 µM: IC50 (second compound 0.0316 µM) | IC50 (second compound 0.1 µM) | IC50 (second compound 0.316 µM)

CC1COCCN1c1cc(C2(S(C)(=N)=O)CC2)nc(-c2ccnc3[nH]ccc23)n1 (stereo unspecified) + Cc1cccc(N(C)C(=O)C2C(O)CCN2c2nc(C)cc(C(F)(F)F)c2C#N)c1
> 10 µM: IC50 (second compound 0.0316 µM) | IC50 (second compound 0.1 µM) | IC50 (second compound 0.316 µM) | IC50 (second compound 1 µM) | IC50 (second compound 3.16 µM) | IC50 (second compound 10 µM)
inactive: viability, T/C [1] 88.5% | viability, T/C [2] 104% | viability, T/C [3] 94.8% | viability, T/C [4] 99.7% | viability, T/C [25] 101% | viability, T/C [26] 69.1% | viability, T/C [5] 102% | viability, T/C [6] 95.1% | viability, T/C [7] 101% | viability, T/C [8] 101% | viability, T/C [27] 95.6% | viability, T/C [28] 68.2% | viability, T/C [9] 94.9% | viability, T/C [10] 98.9% | viability, T/C [11] 96.8% | viability, T/C [12] 102% | viability, T/C [29] 89.1% | viability, T/C [30] 62% | viability, T/C [13] 113% | viability, T/C [14] 102% | viability, T/C [15] 98.2% | viability, T/C [16] 101% | viability, T/C [31] 97% | viability, T/C [32] 69.1% | viability, T/C [17] 102% | viability, T/C [18] 96% | viability, T/C [19] 91.5% | viability, T/C [20] 104% | viability, T/C [33] 86.4% | viability, T/C [34] 74.7% | viability, T/C [21] 114% | viability, T/C [22] 111% | viability, T/C [23] 103% | viability, T/C [24] 111% | viability, T/C [35] 95.7% | viability, T/C [36] 71.7%
